According to ChEMBL document CHEMBL1124616, “Hybrid cholecystokinin (CCK) antagonists: new implications in the design and modification of CCK antagonists” (J Med Chem, 1989):

Experiments:
Cavia porcellus = organism: Cavia porcellus; test: Compound was evaluated for the ability to inhibit CCK-stimulated amylase release in pancreatic acinar cells of guinea pig; assay type: functional
[1] = target: T1, Cholecystokinin receptor type A (Cavia porcellus, UniProt Q63931); test: Compound was evaluated for the binding affinity against Cholecystokinin type A receptor in pancreatic acinar cell
T1 sequence (Q63931 whole entry): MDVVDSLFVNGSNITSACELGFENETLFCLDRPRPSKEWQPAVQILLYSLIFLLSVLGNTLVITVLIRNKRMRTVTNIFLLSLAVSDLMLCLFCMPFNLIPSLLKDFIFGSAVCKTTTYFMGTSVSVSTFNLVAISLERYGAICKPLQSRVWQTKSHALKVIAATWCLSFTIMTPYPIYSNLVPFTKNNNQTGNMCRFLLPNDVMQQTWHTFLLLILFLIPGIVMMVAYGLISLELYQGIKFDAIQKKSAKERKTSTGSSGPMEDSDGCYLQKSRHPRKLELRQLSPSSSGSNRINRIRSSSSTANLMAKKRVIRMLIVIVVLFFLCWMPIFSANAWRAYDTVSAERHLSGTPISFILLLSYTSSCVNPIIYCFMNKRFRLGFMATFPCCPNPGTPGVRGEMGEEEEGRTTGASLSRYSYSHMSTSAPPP

[2] = target: T2, Gastrin/cholecystokinin type B receptor (Cavia porcellus, UniProt H0VZC5); test: Compound was evaluated for the binding affinity against Cholecystokinin type A receptor in cortical cells.; assay type: cell-based
[3] = target: T1, Cholecystokinin receptor type A; test: Compound was evaluated for the binding affinity against CCK A receptor in pancreatic acinar cell
[4] = target: T2, Gastrin/cholecystokinin type B receptor; test: Compound was evaluated for the binding affinity against CCK A receptor in cortical cells.; assay type: cell-based

T2 sequence (H0VZC5 1-426): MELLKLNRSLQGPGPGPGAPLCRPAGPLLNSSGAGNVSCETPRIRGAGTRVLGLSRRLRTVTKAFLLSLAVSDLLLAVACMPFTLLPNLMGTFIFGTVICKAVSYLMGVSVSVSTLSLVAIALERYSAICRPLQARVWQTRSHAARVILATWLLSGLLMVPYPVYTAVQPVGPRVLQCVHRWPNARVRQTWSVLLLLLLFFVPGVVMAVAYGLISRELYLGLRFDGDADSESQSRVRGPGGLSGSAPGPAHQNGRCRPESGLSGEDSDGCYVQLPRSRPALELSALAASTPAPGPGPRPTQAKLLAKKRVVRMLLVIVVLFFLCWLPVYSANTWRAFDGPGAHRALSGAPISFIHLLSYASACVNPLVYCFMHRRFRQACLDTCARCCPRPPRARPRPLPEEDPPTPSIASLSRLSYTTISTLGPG

| IC50 [1] [µM] | IC50 [2] [µM] | IC50 [3] [µM] | IC50 [4] [µM] | Structure (SMILES) | IC50 (Cavia porcellus) [µM] |
| --- | --- | --- | --- | --- | --- |
| 0.32 | 11 | – | – | CCCCCN(CCCCC)C(=O)[C@@H](CCC(=O)O)NC(=O)c1cccc2ccccc12 | 0.28 |
| – | – | – | – | CCCCCN(CCCCC)C(=O)[C@@H](CCC(=O)O)NC(=O)c1cc2ccccc2[nH]1 | 0.036 |
| – | – | – | – | CCCCCN(CCCCC)C(=O)[C@@H](CCC(=O)O)NC(=O)c1cnc2ccccc2c1 | 0.016 |
| 0.063 | – | – | – | CCCCCN(CCCCC)C(=O)[C@@H](CCC(=O)O)NC(=O)c1ccc2ccccc2n1 | – |
| – | – | – | – | CCCCCN(CCCCC)C(=O)[C@H](CCC(=O)O)NC(=O)c1cc2ccccc2[nH]1 | 0.59 |
| – | – | 4.9 | – | CCCCCN(CCCCC)C(=O)[C@H](CCC(=O)O)NC(=O)c1ccc(Cl)c(Cl)c1 | 11 |
| – | 32 | – | – | CCCCCN(CCCCC)C(=O)[C@@H](CCC(=O)O)NC(=O)c1c[nH]c2ccccc12 | 0.83 |
| – | – | 0.031 | 11 | CCCCCN(CCCCC)C(=O)[C@@H](CCC(=O)O)NC(=O)c1ccc2ncccc2c1 | 0.065 |
| – | – | – | – | CCCCCN(CCCCC)C(=O)[C@@H](CCC(=O)O)NC(=O)c1ccc(Cl)c(Cl)c1 | 0.18 |
| 0.012 | 4.2 | – | – | CCCCCN(CCCCC)C(=O)[C@@H](CCC(=O)O)NC(=O)c1ccc2ccccc2c1 [AMIGLUMIDE] | 0.036 |
